Data published in patent US6747036B2, “Methods of treating leukemia” (BioChem Pharma Inc., priority 1999, dated 2004).

What was measured:
[1] = system: Human Leukemia (HL60) xenograft; assay: β-L-OddC/doxorubicin combination study in a human leukemia (HL60) xenograft survival model; format: in vivo, female SCID mice; settings: start day 10
Description: β-L-OddC/doxorubicin Combination Study in a Human Leukemia (HL60) Xenograft Model
A study was conducted to evaluate the synergistic or additive therapeutic effect of β-L-OddC in combination with the currently known anticancer agent Doxorubicin. The model that was utilized is a survival model consisting of female SCID mice which are inoculated in the abdomen region (i.p.) with 15×10^6 HL60 cells in log phase growth. This corresponds to day 0 of the experiment. Administration of anti-cancer drug is started 10 days after tumor cell inoculation.
10 animals were used per group for β-L-oddC alone, Doxorubicin alone and the combination of β-L-oddC with Doxorubicin. Each groups received the drugs alone or in combination intraperitoneal once daily for 5 consecutive days.
Augmentation of survival time was calculated by substracting from the median survival time of group two to six, which corresponds to the day when the fifth mouse dies, the median survival time of control group 1 and multiplying by 100.

advanced leukemia = assay: Evaluation of β-L-oddC in patients with advanced leukemia previously treated with Ara-C; format: in vivo, human; settings: twelve patients treated; 30 min daily infusion for 5 consecutive days; responders 2 each at 1.08 and 1.62 mg/m2; three AML, one CML
Description: Evaluation of β-L-oddC in Patients with Advanced Leukemia.
The study involved treatment of patients with advanced leukemia that had been previously treated with Citarabine (Ara-C). […] Twelve patients were treated with an initial course at daily doses of 0.72 mg/m2 (4 patients), 1.08 mg/m^2 (5 patients), 1.62 mg/m^2 (3 patients) given as a daily infusion over 30 minutes for 5 consecutive days. Five patients were treated with second courses at daily doses of 1.08 mg/m^2 (3 patients), 1.62 mg/m^2 (2 patients) given over 5 consecutive days as above. 1 patient was treated with a 3rd 5 day course at the 2.43 mg/m^2 daily dose level. 4 patients (2 each at the 1.08 mg/m^2 and 1,62 mg/m^2 levels) have shown a transient decrease in peripheral blood and bone marrow blasts. Of these four patients, three had acute mylogenous leukemia and one had chronic mylogenous leukemia.

SMILES	Augmentation Survival Time ([1]; Doxorubicin 0.2 mg/kg i.p. once daily for 5 days) [%]	Augmentation Survival Time ([1]; Doxorubicin 2 mg/kg i.p. once daily for 5 days) [%]	Augmentation Survival Time ([1]; β-L-OddC 1 mg/kg i.p. once daily for 5 days) [%]	patients showing a transient decrease in peripheral blood and bone marrow blasts (advanced leukemia) [patients]
COc1cccc2c1C(=O)c1c(O)c3c(c(O)c1C2=O)C[C@@](O)(C(=O)CO)C[C@@H]3O[C@H]1C[C@H](N)[C@H](O)[C@H](C)O1 [Doxorubicin]	25	50	–	–
Nc1ccn([C@@H]2CO[C@H](CO)O2)c(=O)n1 [β-L-OddC, (−)-β-L-Dioxolane-Cytidine]	–	–	55	4
